Where “and” joins values, the source holds several entries; their conditions need not be identical. Equal entries are not always repeated.
Assay: Rat PK study #1 (Compound A PO, methylcellulose vs propylene glycol formulation)
Format: in vivo, Lewis rats
Procedure: For the first rat pharmacokinetic study, the pharmacokinetics of Compound A were assessed in male Lewis rats. Compound A was prepared in two different formulations (1% methylcellulose and 20% propylene glycol/20% Vitamin E/60% water) according to Table 3A (see Tables 2A and 2D for formulations). The formulations were made fresh prior to use. Animals were divided into two groups based on the compound formulation (n=3/group). The Compound A solutions were administered to animals orally (PO) and animals were then monitored over a 24 h period.
Blood samples (~0.2 mL) were collected according to a schedule (0.083, 0.25, 0.5, 1, 2, 4, 8, and 24 h following the initial dosing) via the jugular vein by cannulation and EDTA-K2 was used as anticoagulant. Within 30 minutes of collection, the samples were centrifuged at approximately 4000 times g-force for 5 minutes at 4° C. to obtain blood plasma. The plasma samples were immediately divided into two aliquots (~75 μL each), transferred to a cryogenic vial, and stored in a freezer at −75±15° C. prior to analysis.
The concentration of Compound A in plasma samples was determined by liquid chromatography-mass spectrometry (LC-MS/MS) using a Shimadzu HPLC (DGU-20A5R; LC-30AD; SIL-30AC; Rack changer II; CTO-31A; and CBM-20A) and an AB API 5500 LC/MS/MS instrument. Samples were analyzed on an Agilent Poroshell 120 EC-C18 4 μm (50×2.1 mm) column. Solution A in the mobile phase was 95% water (0.1% formic acid) and solution B was 95% acetonitrile in water (0.1% formic acid), injection volume was 3 μL, and flow rate was 0.6 mL/min.
To prepare samples for analysis, serial concentrations were prepared by diluting the stock solution of analyte with a 50% acetonitrile in water solution. 5 μL working solutions (5, 10, 20, 50, 100, 500, 1000, 5000, and 10000 ng/ml) were added to 50 μL of the blank Lewis rat plasma to achieve calibration standards of ~0.5 to 1000 ng/ml (0.5, 1, 2, 5, 10, 50, 100, 500, and 1000 ng/ml) in a total volume of 55 μL. Five quality control samples at 1 ng/ml, 2 ng/ml, 5 ng/mL, 50 ng/mL, and 800 ng/mL for plasma were prepared independently of those used for the calibration curves. These QC samples were prepared on the day of analysis in the same way as calibration standards.
55 μL of standards, 55 μL of QC samples and 55 μL of unknown samples (50 μL of unknown rat plasma with 5 μL of blank solution) were added to 200 μL of acetonitrile containing internal standard (IS; verapamil) mixture for precipitating protein respectively. The samples were then vortexed for 30 s. After centrifugation at 4° C., 3900 rpm for 15 min, the supernatant was diluted 3 times with water. 3 μL of diluted supernatant was injected into the LC/MS/MS system for quantitative analysis.

[1] = Lewis rats, PO 10 mg/kg, 1% methylcellulose formulation, individual animals, 10 mg/kg
[2] = Lewis rats, PO 10 mg/kg, 1% methylcellulose formulation, mean of 3 animals
[3] = Lewis rats, PO 10 mg/kg, propylene glycol/Vitamin E TPGS/water formulation, individual animals, 10 mg/kg
[4] = Lewis rats, PO 10 mg/kg, propylene glycol/Vitamin E TPGS/water formulation, mean of 3 animals

Cn1cc(-c2ccccc2)c(-c2cn(C)c(=O)c3[nH]c(-c4cnn(C(F)(F)F)c4)cc23)cc1=O [Compound A, 6-methyl-4-(1-methyl-2-oxo-5-phenyl-1,2-dihydropyridin-4-yl)-2-(1-(trifluoromethyl)-1H-pyrazol-4-yl)-1,6-dihydro-7H-pyrrolo[2,3-c]pyridin-7-one]
Plasma Concentration (Lewis rats, PO 10 mg/kg, 1% methylcellulose formulation, 0.083 h, individual animals): 0.00 ng/mL | Plasma Concentration (Lewis rats, PO 10 mg/kg, 1% methylcellulose formulation, 0.083 h, mean of 3 animals): BLOQ | Plasma Concentration (Lewis rats, PO 10 mg/kg, 1% methylcellulose formulation, 0.25 h, individual animals, 10 mg/kg): 1.37 ng/mL and 0.868 ng/mL and 0.603 ng/mL | Plasma Concentration (Lewis rats, PO 10 mg/kg, 1% methylcellulose formulation, 0.5 h, individual animals, 10 mg/kg): 9.07 ng/mL and 4.15 ng/mL and 2.89 ng/mL | Plasma Concentration (Lewis rats, PO 10 mg/kg, 1% methylcellulose formulation, 1 h, individual animals, 10 mg/kg): 10.7 ng/mL and 12.2 ng/mL | Plasma Concentration (Lewis rats, PO 10 mg/kg, 1% methylcellulose formulation, 2 h, individual animals, 10 mg/kg): 21.6 ng/mL and 22.7 ng/mL | Plasma Concentration (Lewis rats, PO 10 mg/kg, 1% methylcellulose formulation, 4 h, individual animals, 10 mg/kg): 49.2 ng/mL and 43.1 ng/mL | Plasma Concentration (Lewis rats, PO 10 mg/kg, 1% methylcellulose formulation, 8 h, individual animals, 10 mg/kg): 29.3 ng/mL and 67.3 ng/mL and 50.6 ng/mL | Plasma Concentration (Lewis rats, PO 10 mg/kg, 1% methylcellulose formulation, 24 h, individual animals, 10 mg/kg): 0.996 ng/mL and 1.52 ng/mL and 5.80 ng/mL | AUClast [1]: 875 ng·h/mL and 726 ng·h/mL | AUClast/D [1]: 48.0 mg·h/mL and 87.5 mg·h/mL and 72.6 mg·h/mL | Cmax [1]: 67.3 ng/mL and 50.6 ng/mL | F [1]: 2.51% and 4.57% and 3.79% | AUClast/D [2]: 69.4 mg·h/mL | F [2]: 3.62% | Plasma Concentration (Lewis rats, PO 10 mg/kg, propylene glycol/Vitamin E TPGS/water formulation, 0.083 h, individual animals, 10 mg/kg): 3.72 ng/mL and 4.36 ng/mL | Plasma Concentration (Lewis rats, PO 10 mg/kg, propylene glycol/Vitamin E TPGS/water formulation, 0.25 h, individual animals, 10 mg/kg): 39.8 ng/mL and 47.2 ng/mL | Plasma Concentration (Lewis rats, PO 10 mg/kg, propylene glycol/Vitamin E TPGS/water formulation, 0.5 h, individual animals, 10 mg/kg): 134 ng/mL | Plasma Concentration (Lewis rats, PO 10 mg/kg, propylene glycol/Vitamin E TPGS/water formulation, 1 h, individual animals, 10 mg/kg): 264 ng/mL and 263 ng/mL | Plasma Concentration (Lewis rats, PO 10 mg/kg, propylene glycol/Vitamin E TPGS/water formulation, 2 h, individual animals, 10 mg/kg): 375 ng/mL and 424 ng/mL | Plasma Concentration (Lewis rats, PO 10 mg/kg, propylene glycol/Vitamin E TPGS/water formulation, 4 h, individual animals, 10 mg/kg): 316 ng/mL and 437 ng/mL | Plasma Concentration (Lewis rats, PO 10 mg/kg, propylene glycol/Vitamin E TPGS/water formulation, 8 h, individual animals, 10 mg/kg): 156 ng/mL and 145 ng/mL | Plasma Concentration (Lewis rats, PO 10 mg/kg, propylene glycol/Vitamin E TPGS/water formulation, 24 h, individual animals, 10 mg/kg): 12.6 ng/mL and 12.5 ng/mL | AUC_%Extrap_obs (Lewis rats, PO 10 mg/kg, propylene glycol/Vitamin E TPGS/water formulation, individual animals): 2.25% | AUClast [3]: 3428 ng·h/mL and 3755 ng·h/mL | Cmax [3]: 375 ng/mL and 437 ng/mL | F [3]: 25.8% and 17.1% and 19.6% | AUClast/D [4]: 404 | F [4]: 20.8% | Clinical observations (both formulations, PO, 24 h): no recorded clinical observations | plasma concentration, propylene glycol-based vs methylcellulose-based formulation (male Lewis rats, PO, same dose): approximately 10 fold | concentration at 0.083 h (male, Lewis, rat, plasma, po, 10 mg/kg, Lewis rats, PO 10 mg/kg, 1% methylcellulose formulation, 0.083 h, individual animals): 0 ng/mL | concentration at 0.25 h (male, Lewis, rat, plasma, po, 10 mg/kg, Lewis rats, PO 10 mg/kg, 1% methylcellulose formulation, 0.25 h, mean of 3 animals): 0.95 ng/mL | concentration at 0.5 h (male, Lewis, rat, plasma, po, 10 mg/kg, Lewis rats, PO 10 mg/kg, 1% methylcellulose formulation, 0.5 h, mean of 3 animals): 5.37 ng/mL | concentration at 1 h (male, Lewis, rat, plasma, po, 10 mg/kg, Lewis rats, PO 10 mg/kg, 1% methylcellulose formulation, 1 h, individual animals): 17.1 ng/mL | concentration at 1 h (male, Lewis, rat, plasma, po, 10 mg/kg, Lewis rats, PO 10 mg/kg, 1% methylcellulose formulation, 1 h, mean of 3 animals): 13.3 ng/mL

— patent US20260217701A1, “SELECTIVE BET INHIBITORS AND USES THEREOF” (Tay Therapeutics Limited, priority 2022, published 2026)
